Assay results reported in paper doi:10.1101/2023.03.18.532921v1 (biorxiv, 2023).

Target: dA (isolated discontinuous domain A of LAO) (Salmonella enterica, UniProt P02911, DEL114-206)
Test: biochemical

N=C(N)NCCC[C@H](N)C(=O)O [L-arginine]
Kd: 131 µM
